Data taken from EP4755888A1 (ILAb Co., Ltd., priority 2023, dated 2025).

Molecular target: PD-1/PD-L1 (Homo sapiens, UniProt Q9NZQ7)
Assay: TR-FRET PD-1/PD-L1 binding inhibition at the molecular level (free proteins)
Settings: Tag1-PD-L1 and Tag2-PD-1 proteins, twelve concentrations from 200 nM, 2 hours at room temperature, read-out: FRET assay (IC50)
Procedure, shortened: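 HTRF read-out at 665/620 nm after 2 h at room temperature. Detection used anti-Tag1 Eu cryptate plus anti-Tag2 XL665 antibodies. Tagged PD-L1 and PD-1 proteins were pre-mixed with compound across twelve […] 1:2 dilutions starting at 200 nM.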

PD-1/PD-L1, sequence (Q9NZQ7 19-238 limits assumed): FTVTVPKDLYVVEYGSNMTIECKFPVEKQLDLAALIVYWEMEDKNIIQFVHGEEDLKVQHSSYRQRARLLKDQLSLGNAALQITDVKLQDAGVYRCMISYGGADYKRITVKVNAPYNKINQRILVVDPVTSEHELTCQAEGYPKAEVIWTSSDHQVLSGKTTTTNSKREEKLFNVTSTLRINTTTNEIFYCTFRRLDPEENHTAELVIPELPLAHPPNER

Row | Structure (SMILES) | IC50 [nM]
1 | Cc1c(NC(=O)c2cc3n(n2)CCCC3NCCO)cccc1-c1cccc(-c2cc3n(n2)CCCC3NCCO)c1C (centres unmarked) [Compound 158, 4-((2-hydroxyethyl)amino)-N-(3'-(4-((2-hydroxyethyl)amino)-4,5,6,7-tetrahydropyrazolo[1,5-a]pyridin-2-yl)-2,2'-dimethyl-[1,1'-biphenyl]-3-yl)-4,5,6,7-tetrahydropyrazolo[1,5-a]pyridine-2-carboxamide] | 10 to 100
2 | Cc1c(NC(=O)c2cc3n(n2)CCCC3NCCO)cccc1-c1cccc(-c2cc3n(n2)CCCC3N2CC[C@@H](O)C2)c1C (stereo partly drawn) [Compound 159, 4-((2-hydroxyethyl)amino)-N-(3'-(4-((R)-3-hydroxypyrrolidin-1-yl)-4,5,6,7-tetrahydropyrazolo[1,5-a]pyridin-2-yl)-2,2'-dimethyl-[1,1'-biphenyl]-3-yl)-4,5,6,7-tetrahydropyrazolo[1,5-a]pyridine-2-carboxamide] | 10 to 100
3 | Cc1c(NC(=O)c2cc3n(n2)CCCC3N2CC[C@@H](O)C2)cccc1-c1cccc(-c2cc3n(n2)CCCC3NCCO)c1C (stereo partly drawn) [Compound 160, N-(3'-(4-((2-hydroxyethyl)amino)-4,5,6,7-tetrahydropyrazolo[1,5-a]pyridin-2-yl)-2,2'-dimethyl-[1,1'-biphenyl]-3-yl)-4-((R)-3-hydroxypyrrolidin-1-yl)-4,5,6,7-tetrahydropyrazolo[1,5-a]pyridine-2-carboxamide] | 10 to 100
4 | Cc1c(NC(=O)c2cc3n(n2)CCCC3N2CC[C@@H](O)C2)cccc1-c1cccc(-c2cc3n(n2)CCCC3N2CC[C@@H](O)C2)c1C (stereo partly drawn) [Compound 161, 4-((R)-3-hydroxypyrrolidin-1-yl)-N-(3'-(4-((R)-3-hydroxypyrrolidin-1-yl)-4,5,6,7-tetrahydropyrazolo[1,5-a]pyridin-2-yl)-2,2'-dimethyl-[1,1'-biphenyl]-3-yl)-4,5,6,7-tetrahydropyrazolo[1,5-a]pyridine-2-carboxamide] | 10 to 100
5 | COc1nc(-c2cccc(-c3cccc(-c4cc5n(n4)CCCC5NCCO)c3C)c2C)cnc1CNC[C@@H]1CCC(=O)N1 (stereo partly drawn) [Compound 162, (5S)-5-((((5-(3'-(4-((2-hydroxyethyl)amino)-4,5,6,7-tetrahydropyrazolo[1,5-a]pyridin-2-yl)-2,2'-dimethyl-[1,1'-biphenyl]-3-yl)-3-methoxypyrazin-2-yl)methyl)amino)methyl)pyrrolidin-2-one] | 10 to 100
6 | COc1nc(-c2cccc(-c3cccc(-c4cc5n(n4)CCCC5NCC(=O)O)c3C)c2C)cnc1CNC[C@@H]1CCC(=O)N1 (stereo partly drawn) [Compound 163, 2-((2-(3'-(6-methoxy-5-(((((S)-5-oxopyrrolidin-2-yl)methyl)amino)methyl)pyrazin-2-yl)-2,2'-dimethyl-[1,1'-biphenyl]-3-yl)-4,5,6,7-tetrahydropyrazolo[1,5-a]pyridin-4-yl)amino)acetic acid] | 10 to 100
7 | COc1nc(-c2cccc(-c3cccc(-c4cc5n(n4)CCCC5N4CC[C@@H](O)C4)c3C)c2C)cnc1CNC[C@@H]1CCC(=O)N1 (stereo partly drawn) [Compound 164, (5S)-5-((((5-(3'-(4-((R)-3-hydroxypyrrolidin-1-yl)-4,5,6,7-tetrahydropyrazolo[1,5-a]pyridin-2-yl)-2,2'-dimethyl-[1,1'-biphenyl]-3-yl)-3-methoxypyrazin-2-yl)methyl)amino)methyl)pyrrolidin-2-one] | 10 to 100
8 | COc1nc(-c2cccc(-c3cccc(-c4cc5n(n4)CCCC5N4CC[C@@H](C(=O)O)C4)c3C)c2C)cnc1CNC[C@@H]1CCC(=O)N1 (stereo partly drawn) [Compound 165, (3R)-1-(2-(3'-(6-methoxy-5-(((((S)-5-oxopyrrolidin-2-yl)methyl)amino)methyl)pyrazin-2-yl)-2,2'-dimethyl-[1,1'-biphenyl]-3-yl)-4,5,6,7-tetrahydropyrazolo[1,5-a]pyridin-4-yl)pyrrolidine-3-carboxylic acid] | < 10
